What was measured:
[1] = tested on: E. coli BT3/pACYCSP+pRASSL strain; test: Growth of E. coli BT3/pACYCSP+pRASSL with herbicidal compound; format: cell-based, Escherichia coli; settings: 1 ppm, 18 hours culture, Table 15
From the text: (§1) According to the description of Gibson, L. C. D. et al., Proc. Natl. Acad. Sci. USA, 92; p 1941 (1995), the DNA fragment containing bchH gene prepared in Example 1 was digested with the restriction enzymes NdeI and BglII. The resultant DNA fragment was inserted between NdeI restriction site and BamHI restriction site of expression vector pET11a (manufactured by Stratagene) to obtain plasmid pETBCH (FIG. 1). This plasmid pETBCH was introduced into E. coli BL21(DE3) strain competent cells (manufactured by Stratagene) according to the manual attached to the competent cells to obtain E. coli BL21(DE3)/pETBCH strain. […] When the absorbance at 600 nm of the liquid culture medium became about 0.6, isopropyl β-D-thiogalactopyranoside (IPTG) was added to the liquid culture medium so that the final concentration was 0.4 mM, and the culture was continued for about additional 20 hours. […]
(§2) These E. coli strains were inoculated into YPT medium containing 1 ppm of the PPO inhibitory-type herbicidal compound represented by Structure 8, 100 μg/ml ampicillin, 15 μg/ml chloramphenicol, 10 μg/ml kanamycin, 10 μg/ml hemin and 50 μg/ml aminolevulinic acid, cultured under dark conditions or light conditions according to the same manner as in Example 2. Then, 18 hours after initiation of culture, the absorbance of liquid culture medium was measured at 600 nm. […]

[2] = tested on: E. coli BT3/pACYCSP+pRASSL4 strain; test: Growth of E. coli BT3/pACYCSP+pRASSL4 with herbicidal compound; format: cell-based, Escherichia coli; settings: 1 ppm, 18 hours culture, Table 16
From the text: as §1
as §2, with “absorbance of the liquid culture” for “absorbance of liquid culture”

Q: How did the Relative absorbance ([1]; in the dark) turn out when `C#CCOc1cc(N2C(=O)C3=C(CCCC3)C2=O)c(F)cc1Cl` [Structure 8] was run?
A: Its Relative absorbance is 1.0.

Q: What about the Relative absorbance ([1]; in the light) of the same compound?
A: Its Relative absorbance is 0.59.

Q: What about the Relative absorbance ([2]; in the dark) of the same compound?
A: The Relative absorbance was 0.98.

Q: And the Relative absorbance ([2]; in the light)?
A: The Relative absorbance was 1.1.

Reference: patent US7973219B2, “Method for producing transgenic plants resistant to weed control compounds which disrupt the porphyrin pathways of plants” (Sumitomo Chemical Company, Limited, priority 1998, dated 2011)
